A compilation of properties of binary mixtures (doi:10.1016/j.molliq.2018.08.031)

Experiment: xn = mol fraction of the nth substance listed
Settings: 100 kPa

COCCOCCOC + CCCC[n+]1ccn(C)c1.F[P-](F)(F)(F)(F)F
Settings	viscosity [mPa·s]
283.15 K, x2 = 0.0571	2.381
283.15 K, x2 = 0.1013	3.238
283.15 K, x2 = 0.2923	11.69
283.15 K, x2 = 0.39	19.81
283.15 K, x2 = 0.492	37.5
283.15 K, x2 = 0.6827	114.6
283.15 K, x2 = 0.9711	618
293.15 K, x2 = 0.057	1.99
293.15 K, x2 = 0.1982	4.59
293.15 K, x2 = 0.2963	7.91
293.15 K, x2 = 0.3913	14.79
293.15 K, x2 = 0.5865	39.52
293.15 K, x2 = 0.6814	66.5
293.15 K, x2 = 0.7968	124.3
293.15 K, x2 = 0.892	209.7
303.15 K, x2 = 0.0995	1.623
303.15 K, x2 = 0.1973	2.826
303.15 K, x2 = 0.2994	5.146
303.15 K, x2 = 0.4896	14.66
303.15 K, x2 = 0.5893	24.8
303.15 K, x2 = 0.6884	40.83
303.15 K, x2 = 0.8923	113.3
303.15 K, x2 = 0.9596	158.7
313.15 K, x2 = 0.057	0.953
313.15 K, x2 = 0.0943	0.744
313.15 K, x2 = 0.1995	0.789
313.15 K, x2 = 0.2856	1.631
313.15 K, x2 = 0.4877	7.46
313.15 K, x2 = 0.6781	21.08
313.15 K, x2 = 0.7994	38.25
313.15 K, x2 = 0.8941	61
313.15 K, x2 = 0.9553	83.2
